# Data published in patent publication US20080009025A1, “PROTEIN KINASE REGULATION” (priority 1999, published 2008).
# Where a SMILES comes first, the peptide text is derived from it.
# Assays:
# [1] = test system: PDK1; assay: PDK1 activity towards synthetic peptide substrates T308tide or PDKtide; assay type: biochemical, human; conditions: PDK1 L155 mutants
# Procedure: (§1) FIG. 12. PDK1 is activated and stabilised through its interaction with PIFtide. (A) GST-PDK1 activity was measured in the presence of increasing concentrations of wild type (wt) PIFtide (closed circles) or a mutant D978A PIFtide (open circles) using the synthetic peptide substrate termed T308tide, as described in Material and Methods. The data was fitted to a hyperbola using the Kaleidagraph™ software. The connection needed to obtain 50% activation of PDK1 was […] for wt-PIFtide and 1.1 μM for D978A-PIFtide. The assay shown was performed in triplicate and there was less than 5% difference between each assay. Similar results were obtained in 2 further experiments (B)—The wild type GST-PDK1 (circles) or the L155D mutant of GST-PDK1 (squares) was incubated in the presence (closed symbols) or absence (open symbols) of […] PIFtife and then for 2 min at the indicated temperatures, rapidly brought to 0° C. (see Materials and Methods), and 2 min later assayed at 30° C. for 10 min using T308tide as substrate. The activity of PDK1 obtained by incubation at 30° C. was taken as 100%. The assay shown was performed in duplicate with similar results obtained in two separate experiments.
# (§2) FIG. 14. […] (A) His-PDK1 was assayed for activity using as substrate the indicated concentration of either PDKtide (open triangles) or T308tide (open circles). (B) HIS-PDK1 was assayed for activity in the presence if PDKtide (25 μM closed triangles) or T308tide (100 μM closed circles) in the presence of the indicated concentrations of PIFtide. The assay was performed in triplicates with less than 5% difference between the triplicate samples. Similar results were obtained in 3 separate experiments.
# (§3) PDK1's ability to phosphorylate Thr308 of PKBα was measured using a mutant of GST-PKBα in which Ser473 was mutated to Asp (GST-473D PKBα) in the presence of phospholipid vesicles containing sn-1-stearoyl-2-arachidonoyl-D-PtdIns (3, 4, 5)P3 [13]. The ability of wild type and mutant PDK1 to phosphorylate the synthetic peptides T308tide or PDKtide was carried out in 20 μl assays containing 50 mM Tris/HCl pH 7.5, 0.1% 2-mercaptoethanol 10 mM MgCl2, 100 μM [γ^32P]ATP (˜500 cpm/pmol) 0.5 μM microcystin-LR.PDK1 and the peptide concentrations indicated under Results. After incubation for 10 min at 30° C. the reaction was stopped by addition of 20 μl of 150 mM phosphoric acid. 35 μl of the resultant mixture was spotted into P81 phosphocellulose paper (2×2 cm) and the papers washed and analysed as described previously for assays of MAP kinase. […] Control assays were carried out in parallel in which either PDK1, or peptide substrate were omitted; these values were always less than 5% of the activity measured in the presence of these reagents. […]
# [2] = molecular target: T1, PDK1 (Homo sapiens, UniProt O15530); assay: as above; assay type: biochemical; conditions: substrate PDKtide
# T1 construct: Full length PDK1 (residues 1-556); made in house; host or cells: 293 cells
# T1 sequence (O15530 52-556): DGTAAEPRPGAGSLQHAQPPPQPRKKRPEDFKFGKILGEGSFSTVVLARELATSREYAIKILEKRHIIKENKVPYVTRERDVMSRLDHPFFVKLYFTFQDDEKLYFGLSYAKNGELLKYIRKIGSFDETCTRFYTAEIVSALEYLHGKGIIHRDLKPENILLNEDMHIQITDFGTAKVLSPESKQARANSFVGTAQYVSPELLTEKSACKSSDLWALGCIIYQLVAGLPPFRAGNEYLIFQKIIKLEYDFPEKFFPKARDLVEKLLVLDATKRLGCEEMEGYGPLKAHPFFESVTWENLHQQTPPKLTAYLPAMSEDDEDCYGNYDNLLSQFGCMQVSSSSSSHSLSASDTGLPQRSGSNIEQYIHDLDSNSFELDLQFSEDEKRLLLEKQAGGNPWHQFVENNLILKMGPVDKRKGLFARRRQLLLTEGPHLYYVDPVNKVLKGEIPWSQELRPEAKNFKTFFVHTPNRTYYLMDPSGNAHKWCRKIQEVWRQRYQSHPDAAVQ
# Procedure: as §1, §2, §3
smiles,measurement,setting,value
CC[C@H](C)[C@H](NC(=O)[C@H](Cc1ccc(O)cc1)NC(=O)[C@H](CC(=O)O)NC(=O)[C@H](Cc1ccccc1)NC(=O)[C@H](CC(=O)O)NC(=O)[C@H](CCCNC(=N)N)NC(=O)[C@H](Cc1ccccc1)NC(=O)[C@H](CCSC)NC(=O)[C@H](CCC(=O)O)NC(=O)[C@H](CCC(N)=O)NC(=O)[C@H](CCC(=O)O)NC(=O)[C@H](CCC(=O)O)NC(=O)[C@H](CCC(=O)O)NC(=O)[C@H](CO)NC(=O)[C@H](CC(C)C)NC(=O)[C@@H](NC(=O)[C@H](CCCNC(=N)N)NC(=O)[C@@H]1CCCN1C(=O)[C@H](CCC(=O)O)NC(=O)[C@@H](N)CCCNC(=N)N)[C@@H](C)CC)C(=O)N[C@@H](C)C(=O)N[C@@H](CC(=O)O)C(=O)N[C@@H](Cc1c[nH]c2ccccc12)C(=O)N[C@@H](CS)C(=O)O [PIFtide] (H-REPRILSEEEQEMFRDFDYIADWC-OH; N-terminus and C-terminus assumed),"activation of L155A, L155S, L155D and L155E mutants of PDK1 towards T308tide",[1],did not further activate
same,effect on the activity of PDK1 towards PDKtide,[2],inhibited
